# Test results reported in patent publication US5389616A, “Amino acid derivatives” (Hoffman-LaRoche Inc., priority 1988, dated 1995).
# Target: T1, human renin (Homo sapiens, UniProt P00797)
# T1 sequence (P00797 67-406): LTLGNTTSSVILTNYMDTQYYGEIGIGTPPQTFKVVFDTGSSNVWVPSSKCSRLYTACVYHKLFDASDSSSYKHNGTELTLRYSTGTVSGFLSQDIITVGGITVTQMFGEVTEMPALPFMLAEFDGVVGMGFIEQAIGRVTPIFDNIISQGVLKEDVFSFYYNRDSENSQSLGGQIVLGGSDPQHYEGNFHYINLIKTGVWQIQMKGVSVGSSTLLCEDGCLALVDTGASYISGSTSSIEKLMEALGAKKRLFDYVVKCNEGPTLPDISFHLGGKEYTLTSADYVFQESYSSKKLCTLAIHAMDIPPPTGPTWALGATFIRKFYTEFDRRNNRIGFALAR
# Test: In vitro test with pure human renin
# Type: biochemical
# Details: human tetradecapeptide renin substrate (hTD), pH 7.4, incubated 3 hours at 37° C. or 4° C., angiotensin I production measured via RIA
# Description: In vitro test with pure human renin
# The test is carried out in Eppendorf test tubes. The incubation mixture consists of (1) 100μl of human renin in buffer A (0.1M sodium phosphate solution, pH 7.4, containing 0.1% bovine serum albumin, 0.1% sodium azide and 1 mM ethylenediaminetetraacetic acid), sufficient for a renin activity of 2--3 ng of angiotensin I/ml/hr.; (2) 145 μl of buffer A; (3) 30 μl of 10 μM human tetradecapeptide renin substrate (hTD) in 10 mM hydrochloric acid; (4) 15 μl of dimethyl sulphoxide with or without inhibitor and (5) 10 μl of a 0.03 molar solution of hydroxyquinoline sulphate in water.
# The samples are incubated for 3 hours at 37° C. or 4° C. in triplicate. 2 ×100 μl samples per experimental test tube are used in order to measure the production of angiotensin I via RIA (standard radioimmunoassay; clinical assay solid phase kit). Cross reactivities of the antibody used in the RIA are: angiotensin I 100%; angiotensin II 0.0013%; hTD (angiotensin I-Val-Ile-His-Ser-OH) 0.09%. The production of angiotensin I is determined by the difference between the experiment at 37° C. and that at 4° C.
# The following controls are carried out:
# (a) Incubation of hTD samples without renin and without inhibitor at 37° C. and 4° C. The difference between these two values gives the base value of angiotensin I production.
# (b) Incubation of hTD samples with renin, but without inhibitor at 37° C. and 4° C. The difference between these values gives the maximal-value of angiotensin I production.
# In each sample the base value of the angiotensin I production is subtracted from the angiotensin I production which is determined. The difference between the maximal value and the base value gives the value of the maximal substrate hydrolysis (=100%) by renin.
# The results are given as IC50 values which denote that concentration of the inhibitor at which the enzymatic activity is inhibited by 50%. The IC50 values are determined from a linear regression curve from a logit-log plot.
row,Structure (SMILES),IC50 [nM]
1,"CC(C)(C)S(=O)(=O)C[C@@H](Cc1ccccc1)C(=O)N[C@@H](Cc1c[nH]cn1)C(=O)N[C@@H](CC1CCCCC1)[C@@H](O)[C@H](O)c1ccccc1 [E, (S)-α-[(S)-α-[(t-butylsulphonyl)methyl]hydrocinnamamido]-N-[(1S,2R,3R)-1-(cyclohexylmethyl)-2,3-dihydroxy-3-phenylpropyl]imidazole-4-propionamide]",170
2,"CC(C)[C@H](O)[C@H](O)[C@H](CC1CCCCC1)NC(=O)[C@H](Cc1c[nH]cn1)NC(=O)[C@@H](CC(=O)C(C)(C)C)Cc1ccccc1 [C, (S)-N-[(1S,2R,3S)-1-(cyclohexylmethyl)-2,3-dihydroxy-4-methylpentyl]-α-[(R)-α-(3,3-dimethyl-2-oxobutyl)hydrocinnamamido]imidazole-4-propionamide]",3
3,"CCC(CC)C(O)[C@H](O)[C@H](CC1CCCCC1)NC(=O)[C@H](Cc1c[nH]cn1)NC(=O)[C@@H](CC(=O)C(C)(C)C)Cc1ccccc1 (mixture of isomers) [A, (S)-N-[(1S,2R,3RS)-1-(Cyclohexylmethyl)-4-ethyl-2,3-dihydroxyhexyl]-α-[(R)-α-(3,3-dimethyl-2-oxobutyl)hydrocinnamamido]imidazole-4-propionamide]",24
4,"CC(C)(C)S(=O)(=O)C[C@@H](Cc1ccccc1)C(=O)N[C@@H](Cc1c[nH]cn1)C(=O)N[C@@H](CC1CCCCC1)[C@@H](O)[C@@H](O)c1ccccc1 [D, (S)-α-[(S)-α-[(t-butylsulphonyl)methyl]hydrocinnamamido]-N-[(1S,2R,3S)-1-(cyclohexylmethyl)-2,3-dihydroxy-3-phenylpropyl]imidazole-4-propionamide]",7
5,"CC(C)(C)C(O)[C@H](O)[C@H](CC1CCCCC1)NC(=O)[C@H](Cc1c[nH]cn1)NC(=O)[C@H](Cc1ccccc1)CS(=O)(=O)C(C)(C)C (mixture of isomers) [F, (S)-α-[(S)-α-[(t-butylsulphonyl)methyl]hydrocinnamamido]-N-[(1S,2R,3RS)-1-(cyclohexylmethyl)-2,3-dihydroxy-4,4-dimethylpentyl]imidazole-4-propionamide]",38

# The next molecules have a lower IC50 than those just listed; values first:
row,IC50 [nM],Structure (SMILES)
1,2,"CC(C)(C)S(=O)(=O)C[C@@H](Cc1ccccc1)C(=O)N[C@@H](Cc1c[nH]cn1)C(=O)N[C@@H](CC1CCCCC1)[C@@H](O)[C@@H](O)C1CCCCC1 [H, (S)-α-[(S)-α-[(t-butylsulphonyl)methyl]hydrocinnamamido]-N-[(1S,2R,3S)-3-cyclohexyl-1-(cyclohexylmethyl)-2,3-dihydroxypropyl]imidazole-4-propionamide]"
2,2,"CC(C)[C@H](O)[C@H](O)[C@H](CC1CCCCC1)NC(=O)[C@H](Cc1c[nH]cn1)NC(=O)[C@H](Cc1ccccc1)CS(=O)(=O)C(C)(C)C [G, (S)-α-[(S)-α-[(t-butylsulphonyl)methyl]hydrocinnamamido]-N-[(1S,2R,3S)-1-(cyclohexylmethyl)-2,3-dihydroxy-4-methylpentyl]imidazole-4-propionamide]"
3,1,"CC(C)(C)C(=O)C[C@@H](Cc1ccccc1)C(=O)N[C@@H](Cc1c[nH]cn1)C(=O)N[C@@H](CC1CCCCC1)[C@@H](O)[C@@H](O)C1CCCCC1 [B, (S)-N-[(1S,2R,3S)-3-cyclohexyl-1-(cyclohexylmethyl)-2,3-dihydroxypropyl]-α-[(R)-α-(3,3-dimethyl-2-oxobutyl)-hydrocinnamamido]imidazole-4-propionamide]"
